Reference: ChEMBL document CHEMBL5584218, “Design and synthesis of unique morphinan-type molecules: Their application to the search for the unexplored binding domain between opioid receptors and morphinan ligands” (Bioorg Med Chem Lett, 2024)

How the values were obtained:
Type in all cases: cell membranes
[1] = target: Mu-type opioid receptor (Homo sapiens, UniProt P35372); assay: Displacement of [3H]-DAMGO from human MOR extracted from HEK293 cell membrane assessed as inhibition constant
[2] = target: Delta-type opioid receptor (Homo sapiens, UniProt P41143); assay: Displacement of [3H]DPDPE from human DOR extracted from HEK293 cell membrane assessed as inhibition constant
[3] = target: Kappa-type opioid receptor (Homo sapiens, UniProt P41145); assay: Displacement of [3H]U-69593 from human KOR extracted from HEK293 cell membrane assessed as inhibition constant
Sequence of Kappa-type opioid receptor (P41145 whole entry): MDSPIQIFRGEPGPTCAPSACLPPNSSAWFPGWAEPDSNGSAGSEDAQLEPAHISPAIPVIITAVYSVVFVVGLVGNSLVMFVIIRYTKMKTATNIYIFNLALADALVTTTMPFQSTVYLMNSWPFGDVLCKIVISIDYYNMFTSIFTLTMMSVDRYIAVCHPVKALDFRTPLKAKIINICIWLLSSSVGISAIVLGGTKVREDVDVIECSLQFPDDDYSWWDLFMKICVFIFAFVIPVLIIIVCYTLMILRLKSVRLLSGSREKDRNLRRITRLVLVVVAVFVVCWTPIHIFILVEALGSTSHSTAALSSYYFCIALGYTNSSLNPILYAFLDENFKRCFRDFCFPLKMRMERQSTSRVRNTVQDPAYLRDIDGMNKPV

Sequence of Delta-type opioid receptor (P41143 whole entry): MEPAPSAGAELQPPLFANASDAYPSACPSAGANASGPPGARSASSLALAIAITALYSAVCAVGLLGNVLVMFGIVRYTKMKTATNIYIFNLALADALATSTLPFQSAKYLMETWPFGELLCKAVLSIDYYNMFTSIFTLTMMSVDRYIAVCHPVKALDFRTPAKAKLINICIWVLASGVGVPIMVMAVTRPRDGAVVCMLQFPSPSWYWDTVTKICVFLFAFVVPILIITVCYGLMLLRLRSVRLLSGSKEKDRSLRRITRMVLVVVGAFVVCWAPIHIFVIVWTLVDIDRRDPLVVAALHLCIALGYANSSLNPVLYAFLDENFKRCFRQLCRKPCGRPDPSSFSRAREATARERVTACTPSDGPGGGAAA
Sequence of Mu-type opioid receptor (P35372 whole entry): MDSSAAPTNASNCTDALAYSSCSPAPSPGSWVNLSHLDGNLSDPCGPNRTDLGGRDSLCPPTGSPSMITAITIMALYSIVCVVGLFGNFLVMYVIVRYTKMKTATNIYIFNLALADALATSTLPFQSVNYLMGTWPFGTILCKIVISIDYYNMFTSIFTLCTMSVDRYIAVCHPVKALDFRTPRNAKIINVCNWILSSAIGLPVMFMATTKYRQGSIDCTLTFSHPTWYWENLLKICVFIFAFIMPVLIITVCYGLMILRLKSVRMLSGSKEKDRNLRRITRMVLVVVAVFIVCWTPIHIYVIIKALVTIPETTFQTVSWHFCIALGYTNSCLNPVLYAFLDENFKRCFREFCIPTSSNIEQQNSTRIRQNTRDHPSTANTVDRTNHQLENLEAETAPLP

SMILES | Ki [1] [nM] | Ki [2] [nM] | Ki [3] [nM]
N[C@@]12CCC(=O)C3Oc4c(O)ccc5c4[C@@]31CCN(CC1CC1)C2C5 (some centres undefined) | 0.82 | 19 | 1.8
CC(=O)C(C(C)=O)=C1N(CC2CC2)C2Cc3ccc(O)c4c3[C@]35CCN1[C@]23CCC(=O)C5O4 (some centres undefined) | 690 | 1300 | 1400
CC(=O)/C=C1/NC2Cc3ccc(O)c4c3[C@]35CCN1[C@]23CCC(=O)C5O4 (some centres undefined) | 380 | > 10000 | 310
CN1CN2CC[C@]34c5c6ccc(O)c5OC3C(=O)CC[C@]24C1C6 (some centres undefined) | 150 | 160 | 310
O=C1CC[C@@]23C4Cc5ccc(O)c6c5[C@@]2(CCN3CN4CCc2ccccc2)C1O6 (some centres undefined) | 22 | 25 | 5.2
C[C@H](O)C[C@H]1NC2Cc3ccc(O)c4c3[C@]35CCN1[C@]23CCC(=O)C5O4 (some centres undefined) | 57 | 320 | 120
O=C1CC[C@]23C4[C@@H](CN(CC5CC5)C[N@@]42)[C@]32c3cccc(O)c3OC12 (some centres undefined) | 20 | 64 | 21
C[C@@H](O)C[C@H]1NC2Cc3ccc(O)c4c3[C@]35CCN1[C@]23CCC(=O)C5O4 (some centres undefined) | 69 | 620 | 390
